Active and inactive are the calls of the source. No cut-off for these calls is given here.
Legend:
Dihydrofolate reductase = target: T1, Dihydrofolate reductase (Bos taurus, UniProt P00376); assay: Inhibition of bovine liver DHFR
T1 sequence (P00376 whole entry): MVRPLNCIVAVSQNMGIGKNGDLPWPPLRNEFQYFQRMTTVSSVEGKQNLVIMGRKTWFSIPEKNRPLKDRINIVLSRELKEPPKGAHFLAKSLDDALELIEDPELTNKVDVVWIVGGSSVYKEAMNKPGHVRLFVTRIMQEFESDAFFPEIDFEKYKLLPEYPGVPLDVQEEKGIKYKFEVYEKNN

Staphylococcus aureus [1] = assay: Antimicrobial activity against Staphylococcus aureus assessed as inhibition zone at 200 ug/disk after 24 hrs by disc-diffusion method; assay type: functional; conditions: read-out: IZ
Bacillus subtilis [2] = assay: Antimicrobial activity against Bacillus subtilis assessed as inhibition zone at 200 ug/disk after 24 hrs by disc-diffusion method; assay type: functional; conditions: read-out: IZ
Escherichia coli = assay: Antimicrobial activity against Escherichia coli assessed as inhibition zone at 200 ug/disk after 24 hrs by disc-diffusion method; assay type: functional; conditions: read-out: IZ
Pseudomonas aeruginosa = assay: Antimicrobial activity against Pseudomonas aeruginosa assessed as inhibition zone at 200 ug/disk after 24 hrs by disc-diffusion method; assay type: functional; conditions: read-out: IZ
Candida albicans = assay: Antimicrobial activity against Candida albicans assessed as inhibition zone at 200 ug/disk after 24 hrs by disc-diffusion method; assay type: functional; conditions: read-out: IZ
HL-60(TB) = assay: Growth inhibition of human HL-60(TB) cells at 10 uM after 48 hrs; assay type: functional
[3] = (§1) Growth inhibition of human RPMI8226 cells at 10 uM after 48 hrs; assay type: functional; conditions: RPMI-8226, 48 h, read-out: GI
[4] = (§2) Growth inhibition of human HOP92 cells at 10 uM after 48 hrs; assay type: functional; conditions: HOP-92, 48 h, read-out: GI
MCF7 = assay: Growth inhibition of human MCF7 cells at 10 uM after 48 hrs; assay type: functional
T47D = assay: Growth inhibition of human T47D cells at 10 uM after 48 hrs; assay type: functional
Staphylococcus aureus [5] = assay: Antimicrobial activity against Staphylococcus aureus assessed as inhibition of visible growth after 24 hrs by disc-diffusion method; assay type: functional, organism-based
Bacillus subtilis [6] = assay: Antimicrobial activity against Bacillus subtilis assessed as inhibition of visible growth after 24 hrs by disc-diffusion method; assay type: functional, organism-based
CCRF-CEM = assay: Growth inhibition of human CCRF-CEM cells at 10 uM after 48 hrs; assay type: functional
K562 = assay: Growth inhibition of human K562 cells at 10 uM after 48 hrs; assay type: functional
MOLT-4 = assay: Growth inhibition of human MOLT4 cells at 10 uM after 48 hrs; assay type: functional
RPMI-8226 = assay: as §1; assay type: functional
SR = assay: Growth inhibition of human SR cells at 10 uM after 48 hrs; assay type: functional
A549 = assay: Growth inhibition of human A549 cells at 10 uM after 48 hrs; assay type: functional
HOP-92 = assay: as §2; assay type: functional
NCI-H226 = assay: Growth inhibition of human NCI-H226 cells at 10 uM after 48 hrs; assay type: functional
NCI-H23 = assay: Growth inhibition of human NCI-H23 cells at 10 uM after 48 hrs; assay type: functional
NCI-H460 = assay: Growth inhibition of human NCI-H460 cells at 10 uM after 48 hrs; assay type: functional
NCI-H522 = assay: Growth inhibition of human NCI-H522 cells at 10 uM after 48 hrs; assay type: functional
COLO 205 = assay: Growth inhibition of human COLO205 cells at 10 uM after 48 hrs; assay type: functional
HCC 2998 = assay: Growth inhibition of human HCC2998 cells at 10 uM after 48 hrs; assay type: functional
HCT-116 = assay: Growth inhibition of human HCT116 cells at 10 uM after 48 hrs; assay type: functional
HCT-15 = assay: Growth inhibition of human HCT15 cells at 10 uM after 48 hrs; assay type: functional
HT-29 = assay: Growth inhibition of human HT-29 cells at 10 uM after 48 hrs; assay type: functional
KM12 = assay: Growth inhibition of human KM12 cells at 10 uM after 48 hrs; assay type: functional
SW-620 = assay: Growth inhibition of human SW620 cells at 10 uM after 48 hrs; assay type: functional
SF-268 = assay: Growth inhibition of human SF268 cells at 10 uM after 48 hrs; assay type: functional
SF-295 = assay: Growth inhibition of human SF295 cells at 10 uM after 48 hrs; assay type: functional
SF-539 = assay: Growth inhibition of human SF539 cells at 10 uM after 48 hrs; assay type: functional
SNB-19 = assay: Growth inhibition of human SNB19 cells at 10 uM after 48 hrs; assay type: functional
SNB-75 = assay: Growth inhibition of human SNB75 cells at 10 uM after 48 hrs; assay type: functional
U-251 = assay: Growth inhibition of human U251 cells at 10 uM after 48 hrs; assay type: functional
LOX IMVI = assay: Growth inhibition of human LOXIMVI cells at 10 uM after 48 hrs; assay type: functional
Malme-3M = assay: Growth inhibition of human MALME-3M cells at 10 uM after 48 hrs; assay type: functional
M14 = assay: Growth inhibition of human M14 cells at 10 uM after 48 hrs; assay type: functional
MDA-MB-435 = assay: Growth inhibition of human MDA-MB-435 cells at 10 uM after 48 hrs; assay type: functional
SK-MEL-5 = assay: Growth inhibition of human SK-MEL-5 cells at 10 uM after 48 hrs; assay type: functional
UACC-257 = assay: Growth inhibition of human UACC257 cells at 10 uM after 48 hrs; assay type: functional
UACC-62 = assay: Growth inhibition of human UACC62 cells at 10 uM after 48 hrs; assay type: functional
OVCAR-3 = assay: Growth inhibition of human OVCAR3 cells at 10 uM after 48 hrs; assay type: functional
OVCAR-4 = assay: Growth inhibition of human OVCAR4 cells at 10 uM after 48 hrs; assay type: functional
OVCAR-5 = assay: Growth inhibition of human OVCAR5 cells at 10 uM after 48 hrs; assay type: functional
OVCAR-8 = assay: Growth inhibition of human OVCAR8 cells at 10 uM after 48 hrs; assay type: functional
NCI/ADR-RES = assay: Growth inhibition of human NCI-ADR-RES cells at 10 uM after 48 hrs; assay type: functional
786-0 = assay: Growth inhibition of human 786-0 cells at 10 uM after 48 hrs; assay type: functional
A498 = assay: Growth inhibition of human A498 cells at 10 uM after 48 hrs; assay type: functional
ACHN = assay: Growth inhibition of human ACHN cells at 10 uM after 48 hrs; assay type: functional
CAKI-1 = assay: Growth inhibition of human CAKI-1 cells at 10 uM after 48 hrs; assay type: functional
RXF 393 = assay: Growth inhibition of human RXF393 cells at 10 uM after 48 hrs; assay type: functional
SN12C = assay: Growth inhibition of human SN12C cells at 10 uM after 48 hrs; assay type: functional
TK-10 = assay: Growth inhibition of human TK10 cells at 10 uM after 48 hrs; assay type: functional
UO-31 = assay: Growth inhibition of human UO31 cells at 10 uM after 48 hrs; assay type: functional
PC-3 = assay: Growth inhibition of human PC3 cells at 10 uM after 48 hrs; assay type: functional
MDA-MB-231 = assay: Growth inhibition of human MDA-MB-231 cells at 10 uM after 48 hrs; assay type: functional
Hs-578T = assay: Growth inhibition of human Hs 578T cells at 10 uM after 48 hrs; assay type: functional
BT-549 = assay: Growth inhibition of human BT549 cells at 10 uM after 48 hrs; assay type: functional
MDA-MB-468 = assay: Growth inhibition of human MDA-MB-468 cells at 10 uM after 48 hrs; assay type: functional

**Q.** With `Nc1nnc(Sc2nc3ccc(Cl)cc3c(=O)n2-c2ccccc2)s1` as the compound, how does the IC50 (Dihydrofolate reductase) read?
**A.** Its IC50 is 6 µM.

**Q.** And the zone of inhibition at 200 µg/disc (Staphylococcus aureus [1])?
**A.** Its zone of inhibition at 200 µg/disc is 8 mm.

**Q.** And the zone of inhibition at 200 µg/disc (Bacillus subtilis [2])?
**A.** Its zone of inhibition at 200 µg/disc is 8 mm.

**Q.** What about the zone of inhibition at 200 µg/disc (Escherichia coli) of the same compound?
**A.** Its zone of inhibition at 200 µg/disc is 8 mm.

**Q.** What about the zone of inhibition at 200 µg/disc (Pseudomonas aeruginosa) of the same compound?
**A.** Its zone of inhibition at 200 µg/disc is 8 mm.

**Q.** What about the zone of inhibition at 200 µg/disc (Candida albicans) of the same compound?
**A.** Its zone of inhibition at 200 µg/disc is 8 mm.

**Q.** And the inhibition of growth at 10 µM (HL-60(TB); HL-60, 48 h, read-out: GI)?
**A.** The inhibition of growth at 10 µM was 21.5%.

**Q.** What about the inhibition of growth at 10 µM [3] of the same compound?
**A.** The inhibition of growth at 10 µM was 19.1%.

**Q.** And the inhibition of growth at 10 µM [4]?
**A.** Its inhibition of growth at 10 µM is 28.6%.

**Q.** What about the inhibition of growth at 10 µM (MCF7; MCF7, 48 h, read-out: GI) of the same compound?
**A.** The inhibition of growth at 10 µM was 16.4%.

**Q.** What about the inhibition of growth at 10 µM (T47D; read-out: GI) of the same compound?
**A.** Its inhibition of growth at 10 µM is 21.4%.

**Q.** What does the source list for `Cc1ccc2nc(Sc3sc(N)nc3C)n(-c3ccc(Oc4ccccc4)cc3)c(=O)c2c1`?
**A.** IC50 (Dihydrofolate reductase): 2 µM; zone of inhibition at 200 µg/disc (Staphylococcus aureus [1]): 26 mm; zone of inhibition at 200 µg/disc (Bacillus subtilis [2]): 22 mm; zone of inhibition at 200 µg/disc (Escherichia coli): 14 mm; zone of inhibition at 200 µg/disc (Pseudomonas aeruginosa): 8 mm; zone of inhibition at 200 µg/disc (Candida albicans): 8 mm; Activity (Staphylococcus aureus [5]): Active; Activity (Bacillus subtilis [6]): Active; growth inhibition (GI) (CCRF-CEM): inactive; growth inhibition (GI) (HL-60(TB)): inactive; growth inhibition (GI) (K562): inactive; growth inhibition (GI) (MOLT-4): inactive; growth inhibition (GI) (RPMI-8226): inactive; growth inhibition (GI) (SR): inactive; growth inhibition (GI) (A549): inactive; growth inhibition (GI) (HOP-92): inactive; growth inhibition (GI) (NCI-H226): inactive; growth inhibition (GI) (NCI-H23): inactive; growth inhibition (GI) (NCI-H460): inactive; growth inhibition (GI) (NCI-H522): inactive; growth inhibition (GI) (COLO 205): inactive; growth inhibition (GI) (HCC 2998): inactive; growth inhibition (GI) (HCT-116): inactive; growth inhibition (GI) (HCT-15): inactive; growth inhibition (GI) (HT-29): inactive; growth inhibition (GI) (KM12): inactive; growth inhibition (GI) (SW-620): inactive; growth inhibition (GI) (SF-268): inactive; growth inhibition (GI) (SF-295): inactive; growth inhibition (GI) (SF-539): inactive; growth inhibition (GI) (SNB-19): inactive; growth inhibition (GI) (SNB-75): inactive; growth inhibition (GI) (U-251): inactive; growth inhibition (GI) (LOX IMVI): inactive; growth inhibition (GI) (Malme-3M): inactive; growth inhibition (GI) (M14): inactive; growth inhibition (GI) (MDA-MB-435): inactive; growth inhibition (GI) (SK-MEL-5): inactive; growth inhibition (GI) (UACC-257): inactive; growth inhibition (GI) (UACC-62): inactive; growth inhibition (GI) (OVCAR-3): inactive; growth inhibition (GI) (OVCAR-4): inactive; growth inhibition (GI) (OVCAR-5): inactive; growth inhibition (GI) (OVCAR-8): inactive; growth inhibition (GI) (NCI/ADR-RES): inactive; growth inhibition (GI) (786-0): inactive; growth inhibition (GI) (A498): inactive; growth inhibition (GI) (ACHN): inactive; growth inhibition (GI) (CAKI-1): inactive; growth inhibition (GI) (RXF 393): inactive; growth inhibition (GI) (SN12C): inactive; growth inhibition (GI) (TK-10): inactive; growth inhibition (GI) (UO-31): inactive; growth inhibition (GI) (PC-3): inactive; growth inhibition (GI) (MCF7): inactive; growth inhibition (GI) (MDA-MB-231): inactive; growth inhibition (GI) (Hs-578T): inactive; growth inhibition (GI) (BT-549): inactive; growth inhibition (GI) (T47D): inactive; growth inhibition (GI) (MDA-MB-468): inactive

Source: ChEMBL document CHEMBL3352542, “Synthesis, biological evaluation and molecular modeling study of 2-(1,3,4-thiadiazolyl-thio and 4-methyl-thiazolyl-thio)-quinazolin-4-ones as a new class of DHFR inhibitors” (Bioorg Med Chem Lett, 2014)
